# In US8410020B2, “Fungicidal composition comprising a pyridylethylbenzamide derivative and a compound capable of inhibiting the methionine biosynthesis” (Bayer Cropscience AG, priority 2004, dated 2013):
# How the values were obtained:
# Type in all cases: in vivo
# [1] = system: Erysiphe graminis f. sp. tritici; experiment: Efficacy against Erysiphe graminis on wheat plants (preventive spray, 24 h before contamination); conditions: grading 7 to 14 days after contamination
# Procedure: (§1) The active ingredients tested are prepared by potter homogenisation in a mixture of acetone/tween/water. This suspension is then diluted with water to obtain the desired active material concentration.
# Wheat plants (Audace variety) in starter cups, sown on 50/50 peat soil-pozzolana substrate and grown at 12° C., are treated at the 1-leaf stage (10 cm tall) by spraying with the aqueous suspension described above.
# (§2) Plants, used as controls, are treated with an aqueous solution not containing the active material.
# After 24 hours, the plants are contaminated by dusting them with Erysiphe graminis f. sp. tritici spores, the dusting being carried out using diseased plants.
# (§3) Grading is carried out 7 to 14 days after the contamination, in comparison with the control plants.
# [2] = system: Botrytis cinerea; experiment: Efficacy against Botrytis cinerea on gherkin plants (preventive spray, 24 h before contamination); conditions: grading 5 to 7 days after contamination
# Procedure: The formulated (concentrated suspension) compounds are diluted with water to obtain the desired active material concentration Gherkin plants (Petit vert de Paris variety) in starter cups, sown on a 50/50 peat soil-pozzolana substrate and grown at 18-20° C., are treated at the cotyledon Z11 stage by spraying with the aqueous suspension described above. Plants, used as controls, are treated with an aqueous solution not containing the active material.
# After 24 hours, the plants are contaminated by depositing drops of an aqueous suspension of Botrytis cinerea spores (150,000 spores per ml) on upper surface of the leaves. The spores are collected from a 15-day-old culture and are suspended in a nutrient solution composed of: • 20 g/L of gelatine • 50 g/L of cane sugar • 2 g/L of NH4NO3 • 1 g/L of KH2PO4
# The contaminated gherkin plants are settled for 5/7 days in a climatic room at 15-11° C. (day/night) and at 80% relative humidity. Grading (% of efficacy) is carried out 5 to 7 days after the contamination, in comparison with the control plants.
# [3] = system: Erysiphe graminis f. sp. hordei; experiment: Efficacy against Erysiphe graminis f. sp. hordei on barley plants (preventive spray, 24 h before contamination); conditions: dose 500 g/ha, grading 7 to 14 days after contamination
# Procedure: as §1
# Barley plants (Express variety) in starter cups, sown on 50/50 peat soil-pozzolana substrate and grown at 12° C., are treated at the 1-leaf stage (10 cm tall) by spraying with the aqueous suspension described above.
# as §2
# After 24 hours, the plants are contaminated by dusting them with Erysiphe graminis f. sp. hordei spores, the dusting being carried out using diseased plants.
# as §3
smiles,measurement,setting,value
"Cc1cc(C2CC2)nc(Nc2ccccc2)n1 [Cyprodinil, cyprodinil]",% Efficacy,[1]; dose 31.2 g/ha,0%
"Cc1cc(C)nc(Nc2ccccc2)n1 [Pyrimethanil, pyrimethanil]",% Efficacy,[2]; dose 12.3 ppm,90%
"O=C(NCCc1ncc(C(F)(F)F)cc1Cl)c1ccccc1C(F)(F)F [Compound 1, N-{2-[3-chloro-5-(trifluoromethyl)-2-pyridinyl]ethyl}-2-trifluoromethylbenzamide]",% Efficacy,[1]; dose 500 g/ha,35%
same,% Efficacy,[2]; dose 37 ppm,45%
same,% Efficacy,[3],40%
"CC#Cc1cc(C)nc(Nc2ccccc2)n1 [Mepanipyrim, mepanipyrim]",% Efficacy,[3],0%
